Earlier results as cited in publication PMC3298469, “A selective and potent CXCR3 antagonist SCH 546738 attenuates the development of autoimmune diseases and delays graft rejection” (BMC Immunology, 2012).
Read-outs that look alike come from different tables or passages of the source.

Legend:
cardiac allograft = conditions: cited from earlier work
EAE = test system: EAE; set-up: method as in PMID 20050195; conditions: by decreasing migration of inflammatory cells into the CNS; cited from earlier work
[1] = set-up: method as in ref 44 = [44]; Medarex Announces Primary Endpoint Achieved in MDX-1100 Anti-IP-10 Antibody Phase 2 Trial for Rheumatoid Arthritis http://www.fiercebiotech.com/press-releases/medarex-announces-primary-endpoint-achiev; conditions: phase 2 clinical trial for RA; cited from earlier work
[2] = Phase II clinical trials, halted; cited from earlier work
mouse = test system: mouse; set-up: method as in ref 21 = [21]; Medina J Presented at the 29th National Medicinal Chemistry Symposium (Madison, Wisconsin), June 27-July 1 2004; conditions: mouse model of CIA; cited from earlier work
rat = test system: rat; set-up: method as in ref 21 = [21]; Medina J Presented at the 29th National Medicinal Chemistry Symposium (Madison, Wisconsin), June 27-July 1 2004; conditions: rat model of CIA; cited from earlier work

For Cc1ccc(-c2ccc3c(c2)C=C(C(=O)Nc2ccc(C[N+](C)(C)C4CCOCC4)cc2)CCC3)cc1.[Cl-] [TAK-779], the “effect on cardiac allograft vasculopathy” value (cardiac allograft) is given as “attenuates cardiac allograft vasculopathy” and the “effect on EAE” value (EAE) is given as “reduce incidence and severity of EAE”.
For MDX-1100: anti-IP-10 antibody, the clinical outcome [1] is given as “efficacy”.
For CCOc1ccc(-n2c([C@@H](C)N(Cc3cccnc3)C(=O)Cc3ccc(OC(F)(F)F)cc3)nc3ncccc3c2=O)cc1 [AMG487], the clinical outcome [2] is listed as “lack of efficacy”, the “effect in CIA” value (mouse) is listed as “reduced inflammation and cartilage damage” and the “effect in CIA” value (rat) is listed as “reduced inflammation and cartilage damage”.
